# In patent US20240262826A1, “WILD TYPE KIT INHIBITORS” (Blueprint Medicines Corporation, priority 2022, published 2024):
# How the values were obtained:
# [1] = biological target: human P-glycoprotein (P-gp, MDR1) (Homo sapiens (Human), UniProt P08183); test: MDCK-MDR1 cell monolayer drug transport assay (P-gp efflux ratio); format: in vitro ADME; conditions: pH 7.4, MDCK-MDR1 cells, 1 uM concentration of compound, read-out: Pgp Efflux Ratio, 1 uM
# Protocol: The potential for compounds prepared according to the examples to be substrates of P-gp was evaluated using in vitro on Multidrug Resistance Mutation 1-Mardin-Darby Canine Kidney (MDCK-MDR1)) (Mardin-Darby Canine Kidney) cell monolayers overexpressing P-gp grown on permeable supports.
# Preparation for cell seeding: MDCK-MDR1 cell culture medium consisting of Dulbecco's Modified Eagle's Medium (DMEM) with high glucose and L-glutamine supplemented with: 10% FBS, 0.1 mg/mL of streptomycin, 0.6 μg/mL of Kanamycin sulfate and 100 units of penicillin was prepared. 50 μL of culture medium was added to each well of the Transwell insert. The Transwell insert was removed from the reservoir and 25 mL of culture medium was added. After incubation at 37° C., 5% CO2 for 1 hour, the plates were ready for cell seeding. The cells were cultivated in T-75 flasks in a cell culture incubator set at 37° C., 5% CO2, 95% relative humidity until they reached 80-90% confluence before detaching and splitting. The cultivated cells were rinsed in T-75 flasks with 5 mL PBS and aspirated off, and then 1.5 mL trypsin/EDTA was added and incubated at 37° C. for approximately 5 to 10 minutes or until the cells detach and float. The trypsin/EDTA was inactived by adding excess serum containing medium. The cell suspension was transferred to a conical tube and the cells pelleted by centrifugation at 120×g for 10 minutes. The cells were resuspended in seeding medium at a density of 1.56×10^6 cells/mL. This cell concentration was used to seed 5.45×10^5 cells/cm^2.
# Seeding and feeding of MDCK-MDR1 cells into transwell plates: 50 μL of the above cell suspension was added to each well of a previously prepared Transwell plate and the plate was incubated for 4-8 days, replacing the medium every other day beginning no sooner than 48 hours after initial plating. The medium must be replaced on the day before conducting the experiment, and the procedure for medium changes was carried out as follows. The plate was removed from the incubator and placed in a hood. The medium was aspirated from a reservoir and each Transwell was inserted. 100 μL of culture medium was added to each well of the Transwell inserts and 25 mL of culture medium to reservoir tray. The plate was returned to the incubator.
# Assessment of cell monolayer integrity: When the 4-day cultured MDCK-MDR1 cells reached confluence and were differentiated, the medium was removed from the reservoir and Transwell inserts. 100 μL of prewarmed culture medium was added to each transwell insert and 25 mL was added to the reservoir tray. The electrical resistance across the monolayer was measured using a Millicell Epithelial Volt-Ohm measuring system. The electrical resistance for each well was measured and then the plate was returned to the incubator. TEER values were calculated using this formula: TEER measurement (ohms)×Area of membrane (cm2)=TEER value (ohm cm2). Any monolayer with a TEER value <42 ohms·cm2, indicating poor monolayer formation, was discarded.
# Performing the drug transport assay: The MDCK-MDR1 plate was removed from the incubator and the monolayer was washed, exchanging the volume two times using pre-warmed HBSS (Hank's balanced salt solution) (10 mM HEPES, pH 7.4). The plate was then incubated at 37° C. for 30 minutes. A 1 μM compound working solution was prepared as follows: Added […] of stock solution (10 mM in DMSO) of test compound and control compounds (Metoprolol, Prazosin and Imatinib) in one 96 well plate, then added 98 μL of DMSO into the same well to obtain 0.2 mM stock solutions (note a stock solution was further diluted 1:10 for eventually making a 0.1 uM compound working solution). Transfered 3 μL of 0.2 mM solution into 597 μL of transport buffer in one 96 well plate to prepare the 1 μM compound working solution. The plate was shaken at 1000 rpm for 10 min.
# wild type c-kit = wild type c-kit (Homo sapiens (Human), UniProt P10721); test: PathScan phospho c-kit (Tyr719) sandwich ELISA in SCF-stimulated M-07e cells (pKIT assay); format: cell-based; conditions: ELISA assay (values not marked *)
# Method in brief: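 Tyr719-phosphorylated c-kit was measured by colorimetric (TMB) sandwich ELISA in lysates of M-07e cells. Cells were starved 4 h without serum or GM-CSF, dosed 60 min at 37 °C with compound (8 points, duplicate, 0.25% DMSO), and stimulated 10 min with human SCF (500 ng/mL as added). IC50 values came from 4-parameter logistic regression.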
# Chain of wild type c-kit (P10721 26-976): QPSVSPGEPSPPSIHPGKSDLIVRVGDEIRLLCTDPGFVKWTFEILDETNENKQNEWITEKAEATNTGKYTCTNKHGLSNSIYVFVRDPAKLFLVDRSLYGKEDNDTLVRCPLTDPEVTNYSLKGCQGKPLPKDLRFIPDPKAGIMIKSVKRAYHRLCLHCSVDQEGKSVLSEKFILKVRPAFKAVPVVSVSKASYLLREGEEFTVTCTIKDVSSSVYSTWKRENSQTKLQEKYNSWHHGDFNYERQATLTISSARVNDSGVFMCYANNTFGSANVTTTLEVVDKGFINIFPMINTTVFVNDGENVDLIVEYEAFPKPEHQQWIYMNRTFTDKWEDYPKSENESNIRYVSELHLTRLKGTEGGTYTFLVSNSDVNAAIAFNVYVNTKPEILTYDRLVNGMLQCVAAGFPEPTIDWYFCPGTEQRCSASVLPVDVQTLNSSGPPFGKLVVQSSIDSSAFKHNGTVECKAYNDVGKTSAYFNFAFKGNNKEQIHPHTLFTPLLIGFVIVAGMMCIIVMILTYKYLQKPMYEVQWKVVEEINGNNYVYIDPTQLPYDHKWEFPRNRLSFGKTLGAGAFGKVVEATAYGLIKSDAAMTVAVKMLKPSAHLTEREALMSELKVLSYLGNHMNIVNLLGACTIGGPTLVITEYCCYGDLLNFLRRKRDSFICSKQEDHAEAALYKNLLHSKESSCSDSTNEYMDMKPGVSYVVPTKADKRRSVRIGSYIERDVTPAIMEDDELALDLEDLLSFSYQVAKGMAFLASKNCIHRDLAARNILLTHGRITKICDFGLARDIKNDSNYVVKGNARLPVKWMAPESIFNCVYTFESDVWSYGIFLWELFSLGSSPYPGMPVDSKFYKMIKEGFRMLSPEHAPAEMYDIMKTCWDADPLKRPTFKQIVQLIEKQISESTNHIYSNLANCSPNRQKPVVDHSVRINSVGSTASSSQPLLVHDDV
# Chain of human P-glycoprotein (P-gp, MDR1) (P08183 whole entry): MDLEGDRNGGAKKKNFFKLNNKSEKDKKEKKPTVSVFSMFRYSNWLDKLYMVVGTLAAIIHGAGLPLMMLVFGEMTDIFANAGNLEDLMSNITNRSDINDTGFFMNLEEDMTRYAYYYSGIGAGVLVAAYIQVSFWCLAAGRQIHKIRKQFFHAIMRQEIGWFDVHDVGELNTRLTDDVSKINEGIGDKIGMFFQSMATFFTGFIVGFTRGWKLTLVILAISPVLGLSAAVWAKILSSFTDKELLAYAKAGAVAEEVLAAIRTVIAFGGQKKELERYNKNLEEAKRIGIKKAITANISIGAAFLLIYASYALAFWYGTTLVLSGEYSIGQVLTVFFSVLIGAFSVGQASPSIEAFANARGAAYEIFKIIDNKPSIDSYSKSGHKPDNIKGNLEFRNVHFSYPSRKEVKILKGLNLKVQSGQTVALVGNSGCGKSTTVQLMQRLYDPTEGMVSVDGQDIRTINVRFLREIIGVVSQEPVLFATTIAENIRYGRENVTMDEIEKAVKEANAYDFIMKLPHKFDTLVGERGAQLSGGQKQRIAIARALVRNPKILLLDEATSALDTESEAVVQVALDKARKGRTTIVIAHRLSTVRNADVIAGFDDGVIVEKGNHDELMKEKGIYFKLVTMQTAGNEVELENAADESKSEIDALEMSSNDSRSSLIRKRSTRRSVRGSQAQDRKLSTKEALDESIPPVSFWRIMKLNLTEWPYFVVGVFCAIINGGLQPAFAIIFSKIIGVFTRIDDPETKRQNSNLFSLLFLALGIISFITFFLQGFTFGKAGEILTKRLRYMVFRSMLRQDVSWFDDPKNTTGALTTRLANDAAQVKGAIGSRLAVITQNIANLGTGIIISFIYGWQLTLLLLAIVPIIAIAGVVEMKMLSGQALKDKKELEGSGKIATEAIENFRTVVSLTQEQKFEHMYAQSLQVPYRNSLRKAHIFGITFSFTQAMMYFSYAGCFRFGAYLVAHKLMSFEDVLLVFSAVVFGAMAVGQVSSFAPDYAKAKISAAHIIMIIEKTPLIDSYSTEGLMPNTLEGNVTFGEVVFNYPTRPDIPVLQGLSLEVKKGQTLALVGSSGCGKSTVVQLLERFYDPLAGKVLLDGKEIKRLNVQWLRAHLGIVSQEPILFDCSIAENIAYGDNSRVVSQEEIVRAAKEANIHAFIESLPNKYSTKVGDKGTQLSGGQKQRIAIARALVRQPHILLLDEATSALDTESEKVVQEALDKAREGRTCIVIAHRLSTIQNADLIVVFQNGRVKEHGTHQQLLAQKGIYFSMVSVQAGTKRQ
Structure (SMILES),"efflux ratio at 2 h, 1 µM [1]",IC50 (wild type c-kit) [nM]
"O=C(Nc1cc(-n2nnc([C@H]3C[C@@H]3F)n2)ccc1Cl)c1cnn2ccc(-c3cnn(CC4(O)CCOCC4)c3)cc12 (single isomer, unassigned) [Example 271, N-(2-chloro-5-(5-((1R,2S)-2-fluorocyclopropyl)-2H-tetrazol-2-yl)phenyl)-5-(1-((4-hydroxytetrahydro-2H-pyran-4-yl)methyl)-1H-pyrazol-4-yl)pyrazolo[1,5-a]pyridine-3-carboxamide or N-(2-chloro-5-(5-((1S,2R)-2-fluorocyclopropyl)-2H-tetrazol-2-yl)phenyl)-5-(1-((4-hydroxytetrahydro-2H-pyran-4-yl)methyl)-1H-pyrazol-4-yl)pyrazolo[1,5-a]pyridine-3-carboxamide]",2.2,0.3
"Cc1nn(CC2(O)CCOCC2)cc1-c1ccn2ncc(C(=O)Nc3cc(-n4nnc([C@H]5C[C@@H]5F)n4)ccc3Cl)c2c1 (single isomer, unassigned) [Example 272, N-(2-chloro-5-(5-((1R,2S)-2-fluorocyclopropyl)-2H-tetrazol-2-yl)phenyl)-5-(1-((4-hydroxytetrahydro-2H-pyran-4-yl)methyl)-3-methyl-1H-pyrazol-4-yl)pyrazolo[1,5-a]pyridine-3-carboxamide or N-(2-chloro-5-(5-((1S,2R)-2-fluorocyclopropyl)-2H-tetrazol-2-yl)phenyl)-5-(1-((4-hydroxytetrahydro-2H-pyran-4-yl)methyl)-3-methyl-1H-pyrazol-4-yl)pyrazolo[1,5-a]pyridine-3-carboxamide]",7,0.9
"C[C@](O)(CO)Cn1cc(-c2ccn3ncc(C(=O)Nc4cc(-n5nnc([C@@H]6C[C@H]6F)n5)ccc4Cl)c3c2)cn1 (single isomer, unassigned) [Example 273, N-(2-chloro-5-(5-((1S,2R)-2-fluorocyclopropyl)-2H-tetrazol-2-yl)phenyl)-5-(1-((R)-2,3-dihydroxy-2-methylpropyl)-1H-pyrazol-4-yl)pyrazolo[1,5-a]pyridine-3-carboxamide or N-(2-chloro-5-(5-((1R,2S)-2-fluorocyclopropyl)-2H-tetrazol-2-yl)phenyl)-5-(1-((R)-2,3-dihydroxy-2-methylpropyl)-1H-pyrazol-4-yl)pyrazolo[1,5-a]pyridine-3-carboxamide]",4.9,0.5
"Cc1cnn(-c2ccc(C)c(NC(=O)c3cnn4ccc(-c5cnn(CCO)c5)cc34)c2)n1 [Example 57, 5-(1-(2-hydroxyethyl)-1H-pyrazol-4-yl)-N-(2-methyl-5-(4-methyl-2H-1,2,3-triazol-2-yl)phenyl)pyrazolo[1,5-a]pyridine-3-carboxamide]",3.4,4
"Cc1cc(F)c(-c2nnn([C@H]3C[C@@H](C(F)(F)F)C3)n2)cc1NC(=O)c1cnn2ccc(N3CC(C)(O)C3)cc12 [Example 64, N-(4-fluoro-2-methyl-5-(2-((1s,3s)-3-(trifluoromethyl)cyclobutyl)-2H-tetrazol-5-yl)phenyl)-5-(3-hydroxy-3-methylazetidin-1-yl)pyrazolo[1,5-a]pyridine-3-carboxamide]",39.3,3.7
"COC(=O)N1CC(n2nnc(-c3ccc(C)c(NC(=O)c4cnn5ccc(OCCC(C)(C)O)cc45)c3)n2)C1 [Example 65, methyl 3-(5-(3-(5-(3-hydroxy-3-methylbutoxy)pyrazolo[1,5-a]pyridine-3-carboxamido)-4-methylphenyl)-2H-tetrazol-2-yl)azetidine-1-carboxylate]",23.5,33.7

# More lines, now with the values ahead:
"efflux ratio at 2 h, 1 µM [1]",IC50 (wild type c-kit) [nM],Structure (SMILES)
7.1,25,"COC[C@@H]1CCN1c1ccn2ncc(C(=O)Nc3cc(-c4nnn(C5CN(C(=O)OC)C5)n4)ccc3C)c2c1 (stereo in doubt) [Example 85, methyl (S)-3-(5-(3-(5-(2-(methoxymethyl)azetidin-1-yl)pyrazolo[1,5-a]pyridine-3-carboxamido)-4-methylphenyl)-2H-tetrazol-2-yl)azetidine-1-carboxylate or methyl (R)-3-(5-(3-(5-(2-(methoxymethyl)azetidin-1-yl)pyrazolo[1,5-a]pyridine-3-carboxamido)-4-methylphenyl)-2H-tetrazol-2-yl)azetidine-1-carboxylate]"
16,9.8,"Cc1ccc(-c2nnn(C)n2)cc1NC(=O)c1cnn2ccc(-c3cnn(CCO)c3)cc12 [Example 47, 5-(1-(2-hydroxyethyl)-1H-pyrazol-4-yl)-N-(2-methyl-5-(2-methyl-2H-tetrazol-5-yl)phenyl)pyrazolo[1,5-a]pyridine-3-carboxamide]"
14,1.3,"Cc1ccc(-c2nnn(C(C)C)n2)cc1NC(=O)c1cnn2ccc(-c3cnn(CCO)c3)cc12 [Example 49, 5-(1-(2-hydroxyethyl)-1H-pyrazol-4-yl)-N-(5-(2-isopropyl-2H-tetrazol-5-yl)-2-methylphenyl)pyrazolo[1,5-a]pyridine-3-carboxamide]"
5.5,27.4,"Cc1nnn(-c2ccc(C)c(NC(=O)c3cnn4ccc(-c5cnn(CCO)c5)cc34)c2)n1 [Example 51, 5-(1-(2-hydroxyethyl)-1H-pyrazol-4-yl)-N-(2-methyl-5-(5-methyl-2H-tetrazol-2-yl)phenyl)pyrazolo[1,5-a]pyridine-3-carboxamide]"
5.9,0.7,"Cc1ccc(-n2nnc(C3CC3)n2)cc1NC(=O)c1cnn2ccc(-c3cnn(CCO)c3)cc12 [Example 52, N-(5-(5-cyclopropyl-2H-tetrazol-2-yl)-2-methylphenyl)-5-(1-(2-hydroxyethyl)-1H-pyrazol-4-yl)pyrazolo[1,5-a]pyridine-3-carboxamide]"
4.1,126,"COCCCc1ccn2ncc(C(=O)Nc3cc(-c4nnn(C5CN(C(=O)OC)C5)n4)ccc3C)c2c1 [Example 58, methyl 3-(5-(3-(5-(3-methoxypropyl)pyrazolo[1,5-a]pyridine-3-carboxamido)-4-methylphenyl)-2H-tetrazol-2-yl)azetidine-1-carboxylate]"
16.4,3.2,"Cc1ccc(-c2nnn(C3CC(F)(F)C3)n2)cc1NC(=O)c1cnn2ccc(N3CCC(C)(O)CC3)cc12 [Example 61, N-(5-(2-(3,3-difluorocyclobutyl)-2H-tetrazol-5-yl)-2-methylphenyl)-5-(4-hydroxy-4-methylpiperidin-1-yl)pyrazolo[1,5-a]pyridine-3-carboxamide]"
11,6.1,"Cc1ccc(-c2nnn(C3CC(F)(F)C3)n2)cc1NC(=O)c1cnn2ccc(N3CC[C@H](O)C3)cc12 [Example 62, (S)-N-(5-(2-(3,3-difluorocyclobutyl)-2H-tetrazol-5-yl)-2-methylphenyl)-5-(3-hydroxypyrrolidin-1-yl)pyrazolo[1,5-a]pyridine-3-carboxamide]"
13.5,64.9,"COC(=O)N1CC(n2nnc(-c3ccc(C)c(NC(=O)c4cnn5ccc(N6CCN(C)CC6)cc45)c3)n2)C1 [Example 66, methyl 3-(5-(4-methyl-3-(5-(4-methylpiperazin-1-yl)pyrazolo[1,5-a]pyridine-3-carboxamido)phenyl)-2H-tetrazol-2-yl)azetidine-1-carboxylate]"
